# Measured values published in patent publication US10316021B2, “Heteroarylphenoxy benzamide kappa opioid ligands” (Pfizer Inc., priority 2016, dated 2019).
# Like-named read-outs stand apart in the source and are kept apart here.
# What was measured:
# [1] = target: T1, human kappa opioid receptor (hKOR) (Homo sapiens, UniProt P41145); experiment: Kappa radioligand binding assay ([3H]diprenorphine, CHO cell membranes); details: for Selectivity hMOR/hKOR: selectivity ratio calculated by dividing the hMOR Ki by the hKOR Ki
# T1 construct: expressed in transfected cells; host or cells: CHO cells
# T1 sequence (P41145 whole entry): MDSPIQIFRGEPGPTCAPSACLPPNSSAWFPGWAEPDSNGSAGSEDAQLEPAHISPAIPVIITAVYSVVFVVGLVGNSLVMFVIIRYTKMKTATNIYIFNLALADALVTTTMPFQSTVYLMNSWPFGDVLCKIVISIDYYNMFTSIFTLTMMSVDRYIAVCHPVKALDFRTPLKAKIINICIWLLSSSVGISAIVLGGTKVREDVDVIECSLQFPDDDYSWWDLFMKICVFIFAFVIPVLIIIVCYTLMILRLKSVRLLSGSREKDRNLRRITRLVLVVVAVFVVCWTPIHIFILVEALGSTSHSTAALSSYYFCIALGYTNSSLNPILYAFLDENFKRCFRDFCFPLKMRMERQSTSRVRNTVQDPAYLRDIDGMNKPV
# Procedure: (§1) Kappa and Mu Radioligand Binding Assay:
# (§2) Binding assays on membranes from CHO cells expressing human kappa or mu opioid receptors were performed according to standard procedures. Frozen cell paste was homogenized in 50 mM Tris HCl buffer (pH 7.4 @ 4 degrees C.) containing 2.0 mM MgCl2 using a Polytron and spun in a centrifuge at 40,000 g for ten minutes. The final pellet was resuspended in assay buffer (50 mM Tris HCl buffer, pH 7.4, containing 1 mM EDTA, 5 mM MgCl2). Incubations were initiated by the addition of membranes to 96-well plates containing test drugs and [^3H]diprenorphine (0.6 nM final concentration for kappa opioid receptor and 0.5 nM final concentration for mu) in a final volume of 250 μl. Non-specific binding was determined by radioligand binding in the presence of a saturating concentration of naltrexone (10 μM). After a one hour incubation period at room temperature, assay samples were rapidly filtered through PEI coated, GF/B fired Unifilter plates (PerkinElmer) and rinsed with ice-cold 50 mM Tris buffer (pH 7.4). Membrane bound [^3H]diprenorphine levels were determined by liquid scintillation counting of the filterplates in Ecolume scintillation fluid. The IC50 value (concentration at which 50% inhibition of specific binding occurs) was calculated using a logistic 4 parameter fit model of the concentration-response data. Ki values were calculated according to the Cheng Prusoff equation, Ki=IC50/(1+(L/Kd)), where L is the concentration of the radioligand used in the experiment and the Kd value is the dissociation constant for the radioligand (determined previously by saturation analysis).
# [2] = target: T2, human mu opioid receptor (hMOR) (Homo sapiens, UniProt P35372); experiment: Mu radioligand binding assay ([3H]diprenorphine, CHO cell membranes)
# T2 construct: expressed in transfected cells; host or cells: CHO cells
# T2 sequence (P35372 whole entry): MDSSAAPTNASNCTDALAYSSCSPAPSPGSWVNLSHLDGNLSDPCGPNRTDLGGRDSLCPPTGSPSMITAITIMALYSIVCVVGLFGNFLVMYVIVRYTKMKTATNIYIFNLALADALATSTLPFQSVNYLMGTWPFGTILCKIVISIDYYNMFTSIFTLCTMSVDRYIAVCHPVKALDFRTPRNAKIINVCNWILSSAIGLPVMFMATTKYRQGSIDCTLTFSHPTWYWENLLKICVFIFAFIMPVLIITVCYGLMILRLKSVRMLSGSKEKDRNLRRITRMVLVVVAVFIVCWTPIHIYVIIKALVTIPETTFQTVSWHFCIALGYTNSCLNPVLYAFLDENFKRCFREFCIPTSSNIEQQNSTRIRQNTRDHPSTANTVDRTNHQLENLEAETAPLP
# Procedure: as §1
# as §2, with “The IC50 value (concentration at which 50% inhibition of specific binding occurs) was calculated using a logistic 4 parameter fit model of the concentration-response data.” left out
# [3] = Table 19, geometric mean of 2-6 determinations unless otherwise indicated (Example 3: >=7), read-out: hKOR binding assay Ki
# [4] = Table 19, geometric mean of 2-6 determinations unless otherwise indicated (Example 3: >=7), read-out: hMOR binding assay Ki
# [5] = Table 20, radioligand binding, read-out: hKOR binding assay Ki
# [6] = Table 20, radioligand binding, read-out: hMOR binding assay Ki
# [7] = radioligand binding, [3H]diprenorphine, read-out: hKOR Ki
# [8] = radioligand binding, [3H]diprenorphine, read-out: hMOR Ki
SMILES,"Ki [1, 3]","Ki [2, 4]",further results
"Cn1ccc([C@@H]2CCCN2Cc2ccc(Oc3ccc(C(N)=O)c(O)c3)cc2)n1 [Example 34, 2-hydroxy-4-(4-{[(2S)-2-(1-methyl-1H-pyrazol-3-yl)pyrrolidin-1-yl]methyl}phenoxy) benzamide]",0.508 nM,3.98 nM,
"Cc1nn(C)cc1C1CCCN1Cc1ccc(Oc2ccc(C(N)=O)cc2)c(F)c1 (single isomer, unassigned; (-)) [Example 3, (−)-4-(4-{[2-(1,3-Dimethyl-1H-pyrazol-4-yl)pyrrolidin-1-yl]methyl}-2-fluorophenoxy)benzamide]",0.461 nM,16.9 nM,
"Cc1nn(C)nc1C1CCCN1Cc1ccc(Oc2ccc(C(N)=O)cc2)c(F)c1 (single isomer, unassigned) [Example 39, 4-(4-{[2-(2,5-dimethyl-2H-1,2,3-triazol-4-yl)pyrrolidin-1-yl]methyl}-2-fluorophenoxy)benzamide]",0.367 nM,40.9 nM,
"Cc1nn(C)cc1C1CCCN1Cc1ccc(Oc2ccc(C(N)=O)cc2)c(F)c1 (single isomer, unassigned; (+)) [Example 2, (+)-4-(4-{[2-(1,3-Dimethyl-1H-pyrazol-4-yl)pyrrolidin-1-yl]methyl}-2-fluorophenoxy)benzamide]",3.95 nM,27.8 nM,
Cc1cnn(C)c1C1CCCN1Cc1ccc(Oc2ccc(C(N)=O)cc2F)cc1 (stereo not drawn) [Example 43],16.8 nM,56.2 nM,"selectivity for KOR over MOR, in words [1]: unacceptably lower levels of selectivity (MOR/KOR); Ki [1, 5]: 16.8 nM; Selectivity hMOR/hKOR [1]: 3; Ki [2, 6]: 56.2 nM"
"COc1cc(C2CCCN2Cc2ccc(Oc3ccc(C(N)=O)cc3)cc2)n(C)n1 (single isomer, unassigned) [enantiomer of Example 46, 4-(4-{[2-(3-methoxy-1-methyl-1H-pyrazol-5-yl)pyrrolidin-1-yl]methyl}phenoxy)benzamide]",,,"Ki [1, 7]: 111 nM; Ki [2, 8]: 120 nM"
Cc1c(C2CCCN2Cc2ccc(Oc3ccc(C(N)=O)cc3)cc2)cnn1C (racemic) [Example 36],8.53 nM,20.9 nM,
"Cc1c(C2CCCN2Cc2ccc(Oc3ccc(C(N)=O)cc3F)cc2)cnn1C (single isomer, unassigned) [enantiomer of Example 35, 4-(4-{[2-(1,5-dimethyl-1H-pyrazol-4-yl)pyrrolidin-1-yl]methyl}phenoxy)-3-fluorobenzamide]",,,"Ki [1, 7]: 92.8 nM; Ki [2, 8]: 245 nM"
"COc1nn(C)cc1C1COCCN1Cc1ccc(Oc2ccc(C(N)=O)cc2)cc1 (single isomer, unassigned) [enantiomer of Example 23, 4-(4-{[3-(3-methoxy-1-methyl-1H-pyrazol-4-yl)morpholin-4-yl]methyl}phenoxy)benzamide]",,,"Ki [1, 7]: 223 nM; Ki [2, 8]: > 564 nM"
"Cc1nn(C)nc1C1CCCN1Cc1ccc(Oc2ccc(C(N)=O)cc2)c(F)c1 (single isomer, unassigned) [enantiomer of Example 39, 4-(4-{[2-(2,5-dimethyl-2H-1,2,3-triazol-4-yl)pyrrolidin-1-yl]methyl}-2-fluorophenoxy)benzamide]",,,"Ki [1, 7]: 74.5 nM; Ki [2, 8]: 132 nM"
"Cc1c(C2CCCN2Cc2ccc(Oc3ccc(C(N)=O)cc3F)cc2)cnn1C (single isomer, unassigned) [Example 35, 4-(4-{[2-(1,5-dimethyl-1H-pyrazol-4-yl)pyrrolidin-1-yl]methyl}phenoxy)-3-fluorobenzamide]",2.9 nM,18.4 nM,"selectivity for KOR over MOR (hMOR Ki divided by hKOR Ki) [1]: 2.5 fold; Ki [1, 5]: 2.9 nM; Selectivity hMOR/hKOR [1]: 6.4; Ki [2, 6]: 18.4 nM"
"Cc1cc([C@@H]2CCCN2Cc2ccc(Oc3ccc(C(N)=O)c(O)c3)cc2)n(C)n1 [Example 27, 4-(4-{[(2S)-2-(1,3-dimethyl-1H-pyrazol-5-yl)pyrrolidin-1-yl]methyl}phenoxy)-2-hydroxybenzamide]",2.07 nM,121 nM,
"COc1nn(C)cc1C1COCCN1Cc1ccc(Oc2ccc(C(N)=O)cc2F)cc1 (single isomer, unassigned) [enantiomer of Example 20, 3-fluoro-4-(4-{[3-(3-methoxy-1-methyl-1H-pyrazol-4-yl)morpholin-4-yl]methyl}phenoxy)benzamide]",,,"Ki [1, 7]: 145 nM; Ki [2, 8]: > 564 nM"
"Cc1nn(C)cc1C1CCCN1Cc1ccc(Oc2ccc(C(N)=O)c(O)c2)cc1 (racemic) [Example 16, (+/−)-4-(4-{[2-(1,3-Dimethyl-1H-pyrazol-4-yl)pyrrolidin-1-yl]methyl}phenoxy)-2-hydroxybenzamide]",9.67 nM,159 nM,
Cc1cc(C2CCCN2Cc2ccc(Oc3ccc(C(N)=O)cc3F)cc2)on1 (stereo not drawn) [Example 42],54.7 nM,318 nM,"KOR potency, in words [1]: low KOR potency; Ki [1, 5]: 54.7 nM; Selectivity hMOR/hKOR [1]: 5.8; Ki [2, 6]: 318 nM"
Cc1nn(C)c(C)c1C1CCCN1Cc1ccc(Oc2ccc(C(N)=O)cc2F)cc1 (racemic) [Example 37],13.3 nM,12.5 nM,"selectivity for KOR over MOR (hMOR Ki divided by hKOR Ki) [1]: 0.9 fold; Ki [1, 5]: 13.3 nM; Selectivity hMOR/hKOR [1]: 0.9; Ki [2, 6]: 12.5 nM"
COc1nn(C)cc1C1CC(F)CN1Cc1ccc(Oc2ccc(C(N)=O)cc2)cc1 (stereo not drawn) [isomer of Example 24],,,"Ki [1, 7]: 36.3 nM; Ki [2, 8]: 1210 nM"

# Now from value to compound, other results behind:
"Ki [1, 3]","Ki [2, 4]",SMILES,further results
4.52 nM,95.1 nM,"COc1nn(C)cc1C1COCCN1Cc1ccc(Oc2ccc(C(N)=O)cc2)c(F)c1 (single isomer, unassigned) [Example 22, 4-(2-fluoro-4-{[3-(3-methoxy-1-methyl-1H-pyrazol-4-yl)morpholin-4-yl]methyl}phenoxy)benzamide]",
4.99 nM,51.7 nM,"COc1nn(C)cc1C1CC(C)CN1Cc1ccc(Oc2ccc(C(N)=O)cc2F)cc1 (single isomer, unassigned) [Example 31, 3-fluoro-4-(4-{[2-(3-methoxy-1-methyl-1H-pyrazol-4-yl)-4-methylpyrrolidin-1-yl]methyl}phenoxy)benzamide]",
22.5 nM,> 352 nM,"COc1nn(C)cc1C1CCCN1Cc1ccc(Oc2ccc(C(N)=O)cc2F)cc1 (single isomer, unassigned; (+)) [Example 9, (+)-3-Fluoro-4-(4-{[2-(3-methoxy-1-methyl-1H-pyrazol-4-yl)pyrrolidin-1-yl]methyl}phenoxy)benzamide]",
10.5 nM,> 526 nM,"Cc1nn(C)cc1C1CC(F)CN1Cc1ccc(Oc2ccc(C(N)=O)cc2)cc1 (single isomer, unassigned) [Example 26, 4-(4-{[2-(1,3-dimethyl-1H-pyrazol-4-yl)-4-fluoropyrrolidin-1-yl]methyl}phenoxy) benzamide]",
2.21 nM,252 nM,"COc1nn(C)cc1C1CC(F)CN1Cc1ccc(Oc2ccc(C(N)=O)cc2)cc1 (single isomer, unassigned) [Example 24, 4-(4-{[4-fluoro-2-(3-methoxy-1-methyl-1H-pyrazol-4-yl)pyrrolidin-1-yl]methyl}phenoxy)benzamide]",
0.417 nM,9.59 nM,"COc1nn(C)cc1C1CC(C)CN1Cc1ccc(Oc2ccc(C(N)=O)cc2F)cc1 (single isomer, unassigned) [Example 30, 3-fluoro-4-(4-{[2-(3-methoxy-1-methyl-1H-pyrazol-4-yl)-4-methylpyrrolidin-1-yl]methyl}phenoxy)benzamide]",
4.88 nM,77.9 nM,"COc1nn(C)cc1C1CC(C)CN1Cc1ccc(Oc2ccc(C(N)=O)cc2F)cc1 (single isomer, unassigned) [Example 28, 3-fluoro-4-(4-{[2-(3-methoxy-1-methyl-1H-pyrazol-4-yl)-4-methylpyrrolidin-1-yl]methyl}phenoxy)benzamide]",
2.47 nM,112 nM,"COc1nn(C)cc1C1CCCN1Cc1ccc(Oc2ccc(C(N)=O)cc2)c(F)c1 (single isomer, unassigned) [Example 32, 4-(2-fluoro-4-{[2-(3-methoxy-1-methyl-1H-pyrazol-4-yl)pyrrolidin-1-yl]methyl}phenoxy)benzamide]",
